The source of these data is EP0482717A1, “Use of a benzo[b]thiophene-2-carboximidamide derivative against heart failure” (Akzo Nobel N.V., priority 1990, dated 1992).

Common to all, as to type: in vivo
One data set deals with conscious dog. Put plainly: Left ventricular contractility (LV dP/dt), emesis and restlessness after oral administration to conscious dogs. An excerpt: (§1) Related compounds with positive inotropic activity have been disclosed in European patent 158,380.
(§2) The pharmacological results after oral administration of compounds I (this invention) vs. compounds II and III (EP 158,380), are depicted in table I (cat) and table II (dog).

A further data set has as its system anaesthetized cat. Put plainly: Left ventricular contractility (LV dP/dt) after oral administration (by gavage) to anaesthetized cats. Conditions: for potency at increasing left ventricular contractility (LV dP/dt): administered orally (by gavage), compounds I and II compared, species not given.
Source text: However, it also appeared that this improvement with regard to compound II could be fully attributed to its reduced bioavailability. […] Poor activity was also observed after oral administration (by gavage) of the compound to anaesthetized cats. Substitution with C1 at the 4- position in the benzothiophene nucleus, thus reduces oral activity.
as §2

A short description of data set [1]: Plasma drug levels in multiple dose studies in rats. Conditions: compared with an equivalent dose of compound II.
The next data set concerns volunteers. Briefly: Clinical Phase I studies, oral administration to volunteers.
Source text: as §1

The mark [2] stands for this setting: oral administration, conscious dog, dose 25 mg/kg.

Marks after values point to notes of the source that are not given here.

On to `COc1cc2sc(C(=N)NO)cc2c(F)c1OC` [Compound I, 4-fluoro-N-hydroxy-5,6-dimethoxybenzo[b]thiophene-2-carboximidamide], for which the “emetic effect compared with compound II” value in the data set with conscious dog (oral administration to conscious dogs) is “less emetic than compound II”. Also, in the data set on conscious dog (setting [2]), the emesis worked out at 0, the “increase in LV dP/dt (%)” value worked out at 45% and the restlessness is given as 0. For the same compound, in the data set on conscious dog (oral dose 25 mg/kg), the “increases in LV dP/dt” value is recorded as “marked increases” and the vomiting result is given as “no significant vomiting”. For the same compound, the “potency at increasing left ventricular contractility (LV dP/dt)” value in the data set with anaesthetized cat was “approximately equipotent”. Moreover, in data set [1], the plasma drug levels result is on record as “higher”.
Turning to `COc1cc2sc(C(N)=NO)cc2c(Cl)c1OC` [III], the “increases of left ventricular contractility (LV dP/dt)” value with conscious dog (conscious dogs, oral administration, doses up to and including 50 mg/kg) is “Only modest increases”. Besides, in the data set with conscious dog (dose not stated), the emesis and vomiting entry is “did not cause emesis and vomiting”; the restlessness result is on record as “restlessness was still observed”. Further, in the data set on conscious dog (setting [2]), the emesis turned out to be 0 and the “increase in LV dP/dt (%)” value worked out at 10%. The “activity after oral administration (by gavage)” value in the data set with anaesthetized cat (anaesthetized cats) was “Poor activity”.
In the case of `COc1cc2cc(C(N)=NO)sc2cc1OC` [II], in the data set with volunteers, the nausea and vomiting entry is “nausea and vomiting were also observed”. In the data set with conscious dog (administered orally to conscious restrained dogs), the “doses at which the compound consistently produces vomiting and restlessness” value was > 10 mg/kg. In addition, the “increase in LV dP/dt (%)” value in the data set with conscious dog (setting [2]) is 50-100* %. Besides, in the data set on anaesthetized cat, the “potency at increasing left ventricular contractility (LV dP/dt)” value is reported as “approximately equipotent”.
